# Laboratory results published in US7388028B2, “Methoxypolyethylene glycol thioester chelate and uses thereof” (priority 2006, dated 2008).
# How the values were obtained:
# [1] = tested on: rat surgical glaucoma model (intraocular pressure); assay: Topical application of MP compounds, IOP measurements on rat surgical glaucoma model; assay type: in vivo, rats
# Description: Rat ocular hypertensive model: Ocular hypertension was induced in 9 male SpragueDawley rats, weighing between 400 to 500 grams. Under general anesthesia with acepromazine maleate (12 mg/Kg) and ketamine (80 mg/Kg), IP, and topical proparacaine (0.5%), dissection of the conjunctiva was made with fine cuts. To reduce the stimulus for revascularization or neovascularization, dissection of the right eye was limited to the area immediately surrounding the vortex veins. Three of four vortex veins were exposed and ligated using 9.0 nylon sutures. Criterion for inclusion into the study was an intraocular pressure (IOP) increase of 5 mm Hg or more when compared to […] baseline IOP. Within 6 weeks, the IOP of all the operated eyes increased at least 5 mm Hg compared to baseline. National Institutes of Health Guidelines and Association for Research in Vision and Opthalmology statement for the Use and Care of Animals were followed in this study.
# Intraocular pressure (IOP) Measurements: Prior to initiation of treatment, baseline IOP was obtained in glaucoma rat models. IOP was measured via a specially modified Goldmann applanation tonometer (HAAG-STREIT, Bern, Switzerland) under sedation. Measurements are averages of two consecutive readings and were made at the same time of day and by the same observers.
# Topical application of MP compounds for IOP measurements on rat surgical glaucoma model: Rats were treated topically with 20 μl of MP compounds (0.3-100 mM; n=3-6) on the operated eyes. The MP compounds were compared to 10 or 87 mM topical amifostine, a free radical scavenger. MP esterified chelators were diethylenetriaminepentaacetic acid (MPDTE) and MPSEDE.
# [2] = tested on: NMDA retinal damage model; assay: NMDA retinal damage model, electroretinogram A and B waves; assay type: in vivo, rats
# Description: NMDA retinal damage model: Changes in electroretinogram (ERG) A and B waves have been used as indicators of RGC damage. To examine RGC neuroprotection, 2 ul intravitreal injections of 10 mM NMDA, sufficient to change ERG A and B-waves within 2 weeks, were challenged with co-administered intravitreal (2 mM) or topical 100 mM MPDTE, MPSEDE and amifostine in normal rats unilaterally. For topical administration, rats were pretreated for 5 days prior and 3 days post-NMDA administration with the agents at a frequency of 3 times per day with 20 μl agent. Scotopic ERG changes were measured in normal rats. Rats were dark adapted for at least 4 hrs. Eyes were dilated with atropine after which proparacaine and methylcellulose gel were applied topically. Custom made AgCl electrodes (64-1317, Warner Instruments, Hamden, Conn.) were placed on the apex of the cornea. Stimuli consisted of 10-microsec flashes of unattenuated white light generated by Ganzfield bowl photo stimulator (Grass Instruments, PS22, Quincy, Mass.). Data from each eye was recorded separately with a driver amplifier (Grass Instruments, Model 7DAF Polygraph, Quincy, Mass.). Data was acquired digitally via DASYLab (Bedford, N.H.). The contralateral normal eye served as an age matched negative control, e.g. response in a normal, undamaged eye. Differences in amplitude of the A-wave and B-waves between the treated eye and the contralateral eye and between treatment groups were calculated.
# [3] = Intravitreal agent (2 mM) co-administered with intravitreal 10 mM NMDA
# [4] = Topical agent (100 mM, 3 times per day, 5 days prior and 3 days post-NMDA), intravitreal 10 mM NMDA
Molecule,"IOP reduction ([1]; administered alone or together, FIG. 10, not as great as with MPDTE)","A wave [2, 3]","B wave [2, 3]","A wave [2, 4]","B wave [2, 4]",IOP reduction ([1]; topical 10 mM or 87 mM),reduction of NMDA damage ([2]; both intravitreal and topical administration (Table 1)),"reduction of NMDA damage ([2]; co-administration with NMDA, at the dose tested)","IOP reduction ([1]; single topical dose of 10-100 mM, operated eye, FIG. 5-7)"
polyethylene glycol monomethyl ether [MP],reduction in IOP,,,,,,,,
"CN[C@H](CC(=O)O)C(=O)O [NMDA, N-methyl-D-aspartate, reference compound]",,51.2 % Baseline,68.4 % Baseline,51.2 % Baseline,68.4 % Baseline,,,,
"NCCCNCCSP(=O)(O)O [amifostine, S-2-[3-aminopropylamino] ethylphosphorothioate]",,,,,,No reduction in IOP,,,
methoxypolyethlene glycol thioester of ethylenediaminetetraacetic acid methyl triester [MPSEDE],,76.2 % Baseline,69.6 % Baseline,95.9 % Baseline,93.7 % Baseline,,significantly reduced NMDA damage,"trend to reduce NMDA damage, but this was not significant",significantly reduced IOP
